Source: patent US8664277B2, “Compounds and methods for PKCθ inhibition” (Complegen Partners, LLC, priority 2008, dated 2014)
Where two headings read alike, the source gives them in different places.

Tests used:
PKC eta = biological target: T1, PKC eta (Homo sapiens, UniProt P24723); assay: XenoGene counter-screen, PKC eta; format: cell-based; conditions: inverse of (PKC-theta IC50)/(PKC-X IC50)
T1 construct: expressed in transfected cells; host or cells: yeast (XenoGene strain)
Method: (§1) To identify compounds as being selective PKC theta inhibitors the IC50 values are determined against XenoGene™ strains containing other XenoGenes™, especially certain other PKC genes (see Example 10).
(§2) Human PKC theta gene (cDNA) was used to generate a XenoGene™ system as previously described (U.S. Pat. Nos. 6,998,261, 6,232,074), which was used to screen compounds in a chemical compound library. XenoGene™ systems used as counter-screens were constructed similarly using the gene for the appropriate counter-screen target. In particular, human genes (cDNA) encoding PKC delta, PKC eta and PKC epsilon were used to generate XenoGene™ systems.

yeast PKC1 = biological target: T2, yeast PKC1 (Saccharomyces cerevisiae, UniProt P24583); assay: XenoGene counter-screen, yeast PKC1; format: cell-based; conditions: inverse of (PKC-theta IC50)/(PKC-X IC50)
T2 construct: endogenous in cells; host or cells: yeast control strain
T2 sequence (P24583 1-1151): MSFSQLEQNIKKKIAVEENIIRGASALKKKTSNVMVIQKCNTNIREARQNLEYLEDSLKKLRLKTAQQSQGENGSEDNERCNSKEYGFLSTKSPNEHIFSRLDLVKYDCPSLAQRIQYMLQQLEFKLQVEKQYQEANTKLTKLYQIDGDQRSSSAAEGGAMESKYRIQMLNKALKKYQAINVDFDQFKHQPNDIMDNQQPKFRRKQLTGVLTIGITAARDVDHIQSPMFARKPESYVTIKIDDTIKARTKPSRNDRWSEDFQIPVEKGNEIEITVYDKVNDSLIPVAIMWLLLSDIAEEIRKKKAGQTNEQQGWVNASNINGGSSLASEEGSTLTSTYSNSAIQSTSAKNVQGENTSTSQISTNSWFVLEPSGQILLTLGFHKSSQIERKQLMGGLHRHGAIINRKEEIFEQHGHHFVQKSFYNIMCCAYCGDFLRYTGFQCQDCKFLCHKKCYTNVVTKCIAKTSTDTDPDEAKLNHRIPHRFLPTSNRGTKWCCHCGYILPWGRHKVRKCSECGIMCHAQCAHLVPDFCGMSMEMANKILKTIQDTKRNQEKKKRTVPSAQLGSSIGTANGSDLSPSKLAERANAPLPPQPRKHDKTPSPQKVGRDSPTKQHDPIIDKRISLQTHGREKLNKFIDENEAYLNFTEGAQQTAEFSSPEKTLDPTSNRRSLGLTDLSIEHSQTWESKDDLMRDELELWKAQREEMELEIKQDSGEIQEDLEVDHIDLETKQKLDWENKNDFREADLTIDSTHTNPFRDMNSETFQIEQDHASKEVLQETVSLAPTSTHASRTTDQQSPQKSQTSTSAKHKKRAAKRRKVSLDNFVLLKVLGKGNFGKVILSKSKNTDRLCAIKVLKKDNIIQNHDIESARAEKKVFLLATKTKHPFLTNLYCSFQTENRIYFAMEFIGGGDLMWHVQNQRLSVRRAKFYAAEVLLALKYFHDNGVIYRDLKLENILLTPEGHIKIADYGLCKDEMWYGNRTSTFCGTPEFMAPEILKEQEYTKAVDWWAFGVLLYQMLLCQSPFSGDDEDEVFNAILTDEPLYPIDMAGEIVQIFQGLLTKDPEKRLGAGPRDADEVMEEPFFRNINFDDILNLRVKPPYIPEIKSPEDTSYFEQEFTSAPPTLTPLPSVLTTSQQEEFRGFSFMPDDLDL
Description: Using the XenoGene™ system described within, compounds inhibiting PKCθ are identified. The XenoGene™ system is a technology developed and patented by CompleGen wherein genes (“XenoGenes”™) from a target organism (e.g. humans) are used to functionally replace essential genes of a simple organism (yeast). These modified yeast are used to select compounds that act specifically on the protein encoded by the target gene and eliminate compounds that are not specific. XenoGene™ constructs provide a very high throughput screening system that allows identification of compounds active on the function of the target protein in a cell under physiological conditions on “first-pass” screening and further, to selectively counter-screen against 200 human targets or more if necessary. […] The relative potencies of the active compounds is determined by titration to find the concentration of compound providing 50% inhibition of growth (IC50) against the yeast containing the target gene (Table 1).
as §2

T cell lymphomas = assay: Inhibition of T cell lymphomas, live cells counted by flow cytometry; format: cell-based, mouse; conditions: for EC50: Mus musculus, T-cell, 96 h, 4 days growth
Description: The compounds of the present invention can also be screened for the ability to inhibit T cell lymphomas. Assays for inhibiting T cell lymphomas are known to one of skill in the art. In some embodiments, the assay involves mice generated from the nucleus of a mature T cell with a “fixed” rearranged T cell receptor. These T cells spontaneously generate T cell lymphomas which resemble human T cell lymphomas. T cell lymphomas isolated from the mice can then be treated with compounds of the present invention. After sufficient time to allow for cell growth, live cells are counted by flow cytometry (Serwold et al. (2007) J. Immunol. 179; 928). One of skill in the art will appreciate that other assays are useful in the present invention.
(§3) Mice generated from the nucleus of a mature T cell (see Hochedlinger K, Jaenisch R. (2002) Nature 415; 1035) with a “fixed” rearranged T cell receptor spontaneously generate T cell lymphomas which resemble human T cell lymphomas. Several T cell lymphomas (1-4) isolated from these mice were treated with compound 471. All T cell lymphomas were inhibited by compound 471. A B-cell hybridoma served as a non-T cell control and was not affected by the compound. Cells were seeded into 96-well plates (5,000 cells/well) in the presence of compound 471 at concentrations ranging from 0.1 to 5 uM. After 4 days growth (37° C., 5% CO2), live cells were counted by flow cytometry (Serwold et al. (2007) J. Immunol. 179; 928)

PKC delta = biological target: T3, PKC delta (Homo sapiens, UniProt Q05655); assay: XenoGene counter-screen, PKC delta; format: cell-based; conditions: inverse of (PKC-theta IC50)/(PKC-X IC50)
T3 construct: expressed in transfected cells; host or cells: yeast (XenoGene strain)
Method: as §1, §2

B-cell hybridoma = B-cell hybridoma non-T cell control, live cells counted by flow cytometry; format: cell-based
Method: as §3

PKC epsilon = biological target: T4, PKC epsilon (Homo sapiens, UniProt Q02156); assay: XenoGene counter-screen, PKC epsilon; format: cell-based; conditions: inverse of (PKC-theta IC50)/(PKC-X IC50)
T4 construct: expressed in transfected cells; host or cells: yeast (XenoGene strain)
T4 sequence (Q02156 1-737): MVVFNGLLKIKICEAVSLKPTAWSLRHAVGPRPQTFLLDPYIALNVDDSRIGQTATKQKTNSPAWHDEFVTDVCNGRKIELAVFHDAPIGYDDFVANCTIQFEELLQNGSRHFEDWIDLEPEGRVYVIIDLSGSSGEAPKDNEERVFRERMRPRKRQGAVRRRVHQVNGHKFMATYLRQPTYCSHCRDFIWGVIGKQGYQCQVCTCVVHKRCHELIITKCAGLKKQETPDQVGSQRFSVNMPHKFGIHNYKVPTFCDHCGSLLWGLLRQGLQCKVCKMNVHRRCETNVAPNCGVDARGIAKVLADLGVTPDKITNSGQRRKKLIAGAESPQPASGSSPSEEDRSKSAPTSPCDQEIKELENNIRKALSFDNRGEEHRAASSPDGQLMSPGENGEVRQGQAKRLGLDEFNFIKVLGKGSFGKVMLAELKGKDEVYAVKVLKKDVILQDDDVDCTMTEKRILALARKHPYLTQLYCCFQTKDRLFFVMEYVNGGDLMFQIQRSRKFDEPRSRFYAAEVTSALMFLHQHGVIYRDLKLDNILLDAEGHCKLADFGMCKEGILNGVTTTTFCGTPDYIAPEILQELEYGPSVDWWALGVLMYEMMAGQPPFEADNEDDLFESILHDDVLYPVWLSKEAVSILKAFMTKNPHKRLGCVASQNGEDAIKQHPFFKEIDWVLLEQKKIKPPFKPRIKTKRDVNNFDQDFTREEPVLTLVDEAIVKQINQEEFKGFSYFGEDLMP
Method: as §1, §2

Human PKC theta = biological target: T5, Human PKC theta (Homo sapiens, UniProt Q04759); assay: XenoGene yeast growth inhibition, yeast containing human PKC theta gene; format: cell-based
T5 construct: expressed in transfected cells; host or cells: yeast (XenoGene strain)
Description: Using the XenoGene™ system described within, compounds inhibiting PKCθ are identified. The XenoGene™ system is a technology developed and patented by CompleGen wherein genes (“XenoGenes”™) from a target organism (e.g. humans) are used to functionally replace essential genes of a simple organism (yeast). These modified yeast are used to select compounds that act specifically on the protein encoded by the target gene and eliminate compounds that are not specific. […]

Mouse splenic T cells = assay: Inhibition of naive T cell activation (anti-CD3/anti-CD28), 3H-TdR incorporation; format: cell-based; conditions: three days, control without compound 31571
Method: Inhibition of naïve T cell activation by compound 471. Mouse splenic T cells were isolated from unimmunized mice by magnetic negative selection (Miltenyi®, Untouched T Cell Isolation Kit) or FACS using anti-CD3-PE-Cy7. Isolated T cells were incubated in microtiter wells coated with anti-CD3 monoclonal antibody and soluble anti-CD28 monoclonal antibody, 10^5 cells/100 μl in 10% FBS-RPMI as above, for three days. Proliferation was measured by ^3H-TdR incorporation.

[1] = 50% inhibition of growth of yeast containing the target gene, read-out: IC50
[2] = XenoGene system, read-out: PKC-theta IC50
[3] = IC50, 50% inhibition of growth of yeast containing the target gene

T5 sequence (Q04759 whole entry): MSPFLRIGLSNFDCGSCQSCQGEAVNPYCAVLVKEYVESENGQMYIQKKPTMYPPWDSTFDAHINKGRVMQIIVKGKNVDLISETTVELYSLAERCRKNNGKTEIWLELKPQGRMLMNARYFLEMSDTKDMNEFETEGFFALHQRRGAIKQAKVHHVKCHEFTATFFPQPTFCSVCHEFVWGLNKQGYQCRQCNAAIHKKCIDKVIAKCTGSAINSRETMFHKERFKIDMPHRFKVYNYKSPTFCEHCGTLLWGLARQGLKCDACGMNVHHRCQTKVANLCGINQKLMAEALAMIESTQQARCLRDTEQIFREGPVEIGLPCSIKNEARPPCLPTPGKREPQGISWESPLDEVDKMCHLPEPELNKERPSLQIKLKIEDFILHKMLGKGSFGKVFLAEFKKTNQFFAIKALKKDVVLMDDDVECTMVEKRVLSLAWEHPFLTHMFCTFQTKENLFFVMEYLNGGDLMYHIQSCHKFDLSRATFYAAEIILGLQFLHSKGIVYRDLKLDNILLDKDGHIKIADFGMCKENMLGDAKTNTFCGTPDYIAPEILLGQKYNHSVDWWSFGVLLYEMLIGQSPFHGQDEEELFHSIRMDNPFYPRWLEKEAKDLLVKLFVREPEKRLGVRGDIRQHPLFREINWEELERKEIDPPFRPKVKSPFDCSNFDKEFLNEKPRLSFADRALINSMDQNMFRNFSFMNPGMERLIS
T3 sequence (Q05655 whole entry): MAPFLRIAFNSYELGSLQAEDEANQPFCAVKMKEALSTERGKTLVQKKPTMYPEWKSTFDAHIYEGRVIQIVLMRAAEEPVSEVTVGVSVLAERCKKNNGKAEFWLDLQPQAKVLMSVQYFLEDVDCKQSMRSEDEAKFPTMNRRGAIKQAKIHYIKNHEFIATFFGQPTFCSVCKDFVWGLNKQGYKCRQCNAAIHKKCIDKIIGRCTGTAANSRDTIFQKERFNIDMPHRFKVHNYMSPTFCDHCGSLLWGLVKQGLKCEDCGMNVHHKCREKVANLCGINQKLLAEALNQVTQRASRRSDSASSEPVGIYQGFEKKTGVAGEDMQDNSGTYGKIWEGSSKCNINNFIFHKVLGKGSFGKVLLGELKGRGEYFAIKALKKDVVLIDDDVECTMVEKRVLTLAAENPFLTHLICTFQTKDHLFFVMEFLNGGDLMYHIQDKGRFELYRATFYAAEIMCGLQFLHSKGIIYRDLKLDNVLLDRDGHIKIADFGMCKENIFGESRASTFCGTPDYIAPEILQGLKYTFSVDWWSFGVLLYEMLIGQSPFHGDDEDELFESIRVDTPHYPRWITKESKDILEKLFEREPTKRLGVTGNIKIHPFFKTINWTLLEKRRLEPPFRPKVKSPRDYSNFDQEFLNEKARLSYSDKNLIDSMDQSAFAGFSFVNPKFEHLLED
T1 sequence (P24723 whole entry): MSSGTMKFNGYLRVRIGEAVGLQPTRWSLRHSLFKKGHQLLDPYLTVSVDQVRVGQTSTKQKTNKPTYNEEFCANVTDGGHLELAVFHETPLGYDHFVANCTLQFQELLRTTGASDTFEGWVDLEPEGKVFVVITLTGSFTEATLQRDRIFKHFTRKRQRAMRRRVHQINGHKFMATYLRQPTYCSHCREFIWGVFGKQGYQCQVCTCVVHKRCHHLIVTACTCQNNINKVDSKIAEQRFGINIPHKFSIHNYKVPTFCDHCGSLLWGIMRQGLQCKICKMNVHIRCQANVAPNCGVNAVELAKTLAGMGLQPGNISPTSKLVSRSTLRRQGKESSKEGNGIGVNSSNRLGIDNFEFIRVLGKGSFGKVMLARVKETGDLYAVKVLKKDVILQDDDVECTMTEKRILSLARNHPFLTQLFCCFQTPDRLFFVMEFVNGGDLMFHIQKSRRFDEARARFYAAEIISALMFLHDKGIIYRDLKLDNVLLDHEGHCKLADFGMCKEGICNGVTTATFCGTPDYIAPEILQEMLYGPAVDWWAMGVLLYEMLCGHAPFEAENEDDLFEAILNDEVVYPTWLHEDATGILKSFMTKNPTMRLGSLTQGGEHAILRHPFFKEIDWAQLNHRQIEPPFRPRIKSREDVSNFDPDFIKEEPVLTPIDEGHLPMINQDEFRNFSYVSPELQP

Row | Compound | Selectivity for PKC-theta v. PKC-eta (PKC eta) | Selectivity for PKC-theta v. PKC-delta (PKC delta) | Selectivity for PKC-theta v. PKC-epsilon (PKC epsilon) | IC50 (Human PKC theta; [1]) | IC50 (Human PKC theta; [2]) | further results
1 | CC(C)(C)c1ccc(Oc2ccc(N)cc2)cc1 [Compound 471] | 0.36 | 2.5 | 1.1 | < 1 µM | 0.14 µM | Selectivity for PKC-theta v. yeast PKC1 (yeast PKC1): 28; EC50 (T cell lymphomas; Lymphoma 1): 0.7 µM; EC50 (T cell lymphomas; Lymphoma 2): 0.2 µM; EC50 (T cell lymphomas; Lymphoma 4): < 0.1 µM; EC50 (T cell lymphomas; Lymphoma 5): 0.7 µM; Inhibition of T cell lymphomas (T cell lymphomas; all T cell lymphomas, 0.1 to 5 uM): inhibited; EC50 (B-cell hybridoma; 96 h, B-cell Hybridoma, 4 days growth): > 5 µM; Effect on B-cell hybridoma (B-cell hybridoma; non-T cell control, 0.1 to 5 uM): not affected; 3H-TdR cpm (Mouse splenic T cells; 0.5 uM compound): 21928 cpm; 3H-TdR cpm (Mouse splenic T cells; 1.0 uM compound): 880 cpm
2 | CC(C)(C)c1ccc(Oc2ccc(N)nc2)cc1 [Compound 486] | – | – | – | > 10 µM | – | –
3 | Nc1ccc(Oc2ccc(OC(F)(F)F)cc2Cl)cc1 [Compound 498] | – | – | – | < 1 µM | – | –
4 | Nc1ccc(Oc2ccc(C(F)(F)F)cc2Cl)cc1 [Compound 499] | – | – | – | – | – | IC50 (Human PKC theta; [3]): < 1 µM
5 | Nc1ccc(Oc2ccccc2)cc1 [Compound 500] | – | – | – | > 10 µM | – | –
6 | CC(=O)Nc1ccc(Oc2ccc(Cl)cc2Cl)cc1 [Compound 501] | – | – | – | – | – | IC50 (Human PKC theta; [3]): > 10 µM
7 | Nc1ccc(Oc2cc(Cl)cc(Cl)c2)cc1 [Compound 504] | 1.8 | 8.1 | 8.8 | 1 to 10 µM | 1.6 µM | –
8 | Cc1cc(Oc2ccc(N)cc2)ccc1Cl [Compound 505] | 3.0 | 13 | 11 | < 1 µM | 0.4 µM | –
9 | Nc1ccc(Oc2ccc(Cl)cc2Cl)cc1 [Compound 506, 4-(2,4-dichlorophenoxy)aniline] | 0.63 | 1.9 | 2.5 | 1 to 10 µM | 1.6 µM | Selectivity for PKC-theta v. yeast PKC1 (yeast PKC1): 9.4
10 | Cc1cc(Oc2ccc(N)cc2)ccc1Cl [Compound 507] | – | – | – | 1 to 10 µM | – | –
11 | Cc1ccc(Oc2ccc(N)cc2)cc1 [Compound 508] | – | – | – | 1 to 10 µM | – | –
12 | Nc1ccc(Oc2ccc(OC(F)(F)F)cc2)cc1 [Compound 510] | – | – | – | < 1 µM | – | –
